Reference: PubChem BioAssay AID314 (DTP/NCI, 2004)
Values joined by “and” are separate entries in the source; they are usually repeats but may differ in a detail not shown here. Identical values can stand only once. Toxic doses and inconclusive results are not listed.

Tested on: DBA/2 mice, P1534 leukemia ip, survival T/C
Test: NCI In Vivo Anticancer Drug Screen. Data for tumor model P1534 Leukemia (intraperitoneal) in DBA/2 mice
Settings: endpoint: mean survival time, higher = longer survival
Method: The antitumor activity of compounds was measured in mice bearing transplantable tumors. Survival or tumor size were measured and the results are expressed as the measurement made in the treated group (T) divided by the measurement made in the vehicle treated control group (C). The tumor model used in this assay is P1534 Leukemia (intraperitoneal) in DBA/2 mice

[1] = dose: 31.3 mg/kg/injection, schedule: Q01DX010 (ip), vehicle: saline
[2] = dose: 62.5 mg/kg/injection, schedule: Q01DX010 (ip), vehicle: saline
[3] = dose: 125.0 mg/kg/injection, schedule: Q01DX010 (ip), vehicle: saline
[4] = dose: 250.0 mg/kg/injection, schedule: Q01DX010 (ip), vehicle: saline
[5] = dose: 2.5 mg/kg/injection, schedule: Q01DX010 (ip), vehicle: saline
[6] = dose: 5.0 mg/kg/injection, schedule: Q01DX010 (ip), vehicle: saline
[7] = dose: 2.0 mg/kg/injection, schedule: Q01DX010 (ip), vehicle: saline
[8] = dose: 4.0 mg/kg/injection, schedule: Q01DX010 (ip), vehicle: saline
[9] = dose: 8.0 mg/kg/injection, schedule: Q01DX010 (ip), vehicle: saline
[10] = dose: 16.0 mg/kg/injection, schedule: Q01DX010 (ip), vehicle: saline
[11] = dose: 32.0 mg/kg/injection, schedule: Q01DX010 (ip), vehicle: saline
[12] = dose: 3.13 mg/kg/injection, schedule: Q01DX010 (ip), vehicle: saline
[13] = dose: 6.25 mg/kg/injection, schedule: Q01DX010 (ip), vehicle: saline
[14] = dose: 12.5 mg/kg/injection, schedule: Q01DX010 (ip), vehicle: saline
[15] = dose: 25.0 mg/kg/injection, schedule: Q01DX010 (ip), vehicle: saline
[16] = dose: 0.25 mg/kg/injection, schedule: Q01DX010 (ip), vehicle: saline
[17] = dose: 0.5 mg/kg/injection, schedule: Q01DX010 (ip), vehicle: saline
[18] = dose: 1.0 mg/kg/injection, schedule: Q01DX010 (ip), vehicle: saline

O=C1CCC(N2C(=O)c3ccccc3C2=O)C(=O)N1 (centres undefined)
T/C [1]: 100 % of control | T/C [2]: 96 % of control | T/C [3]: 96 % of control | T/C [4]: 96 % of control

NC(Cc1ccc(N(CCCl)CCCl)cc1)C(=O)O (centres undefined)
T/C (dose: 0.5 mg/kg/injection, schedule: Q01DX010 (ip), vehicle: alkali diluted with saline): 102 % of control and 111 % of control | T/C (dose: 1.0 mg/kg/injection, schedule: Q01DX010 (ip), vehicle: alkali diluted with saline): 104 % of control | T/C (dose: 1.25 mg/kg/injection, schedule: Q01DX010 (ip), vehicle: saline): 100 % of control and 119 % of control | T/C (dose: 2.0 mg/kg/injection, schedule: Q01DX010 (ip), vehicle: alkali diluted with saline): 99 % of control | T/C [5]: 100 % of control | T/C (dose: 4.0 mg/kg/injection, schedule: Q01DX010 (ip), vehicle: alkali diluted with saline): 101 % of control | T/C [6]: 100 % of control

Oc1cc(CN(CCCl)CCCl)c(O)cc1CN(CCCl)CCCl
T/C [5]: 117 % of control

CS(=O)(=O)OCCCl
T/C (dose: 18.8 mg/kg/injection, schedule: Q01DX010 (ip), vehicle: saline): 89 % of control | T/C (dose: 37.5 mg/kg/injection, schedule: Q01DX010 (ip), vehicle: saline): 100 % of control | T/C (dose: 75.0 mg/kg/injection, schedule: Q01DX010 (ip), vehicle: saline): 92 % of control

Nc1nc2n[nH]nc2c(=O)[nH]1
T/C (dose: 3.0 mg/kg/injection, schedule: Q01DX010 (ip), vehicle: alkali diluted with saline): 100 % of control and 115 % of control | T/C (dose: 6.0 mg/kg/injection, schedule: Q01DX010 (ip), vehicle: alkali diluted with saline): 100 % of control and 111 % of control | T/C (dose: 12.0 mg/kg/injection, schedule: Q01DX010 (ip), vehicle: alkali diluted with saline): 107 % of control and 113 % of control

CCNNC(=O)[C@@H]1[C@H](c2cc(OC)c(OC)c(OC)c2)c2cc3c(cc2[C@H](O)[C@H]1CO)OCO3
T/C [7]: 100 % of control | T/C [8]: 100 % of control | T/C [9]: 96 % of control and 100 % of control and 111 % of control | T/C [10]: 100 % of control (2×) and 103 % of control | T/C [11]: 103 % of control

Cn1c(O)c(N=NC(N)=S)c2ccccc21
T/C [1]: 100 % of control | T/C [2]: 100 % of control | T/C [3]: 103 % of control

Nc1ncccc1C(=O)O
T/C [2]: 89 % of control

C/C=C1\CN(C=O)C2CC3c4ccccc4NC3C(=O)CC1C2C(=O)OC (centres undefined)
T/C [12]: 100 % of control | T/C [13]: 100 % of control | T/C [14]: 100 % of control | T/C [15]: 100 % of control

O=CN(O)CC(=O)O
T/C (dose: 15.6 mg/kg/injection, schedule: Q01DX010 (ip), vehicle: saline): 93 % of control | T/C [1]: 93 % of control | T/C [2]: 96 % of control | T/C [3]: 93 % of control

CSc1ncnc2c1ncn2C1OC(CO)C(O)C1O (centres undefined)
T/C [8]: 100 % of control | T/C [9]: 100 % of control | T/C [10]: 96 % of control and 100 % of control

C[C@@H]1CC[C@@]2(NC1)O[C@H]1C[C@H]3[C@@H]4CC=C5C[C@@H](O)CC[C@]5(C)[C@H]4CC[C@]3(C)[C@H]1[C@@H]2C
T/C (dose: 5.0 mg/kg/injection, schedule: Q01DX010 (sc), vehicle: steriod suspending solution): 100 % of control | T/C (dose: 10.0 mg/kg/injection, schedule: Q01DX010 (sc), vehicle: steriod suspending solution): 106 % of control | T/C (dose: 20.0 mg/kg/injection, schedule: Q01DX010 (sc), vehicle: steriod suspending solution): 96 % of control | T/C (dose: 40.0 mg/kg/injection, schedule: Q01DX010 (sc), vehicle: steriod suspending solution): 93 % of control

CCOC(C)C(/C=N/NC(N)=S)=NNC(N)=S (centres undefined)
T/C (dose: 15.0 mg/kg/injection, schedule: Q01DX010 (ip), vehicle: saline): 91 % of control | T/C (dose: 30.0 mg/kg/injection, schedule: Q01DX010 (ip), vehicle: saline): 100 % of control | T/C (dose: 60.0 mg/kg/injection, schedule: Q01DX010 (ip), vehicle: saline): 100 % of control | T/C (dose: 120.0 mg/kg/injection, schedule: Q01DX010 (ip), vehicle: saline): 95 % of control

OC(CBr)C(O)C(O)C(O)CBr (centres undefined)
T/C (dose: 100.0 mg/kg/injection, schedule: Q01DX010 (ip), vehicle: saline): 100 % of control

CCC(=O)NC1=C(N2CC2)C(=O)C(NC(=O)CC)=C(N2CC2)C1=O
T/C (dose: 0.13 mg/kg/injection, schedule: Q01DX010 (ip), vehicle: saline): 108 % of control | T/C [16]: 108 % of control | T/C [17]: 100 % of control | T/C [18]: 112 % of control

C1CCNC1
T/C (dose: 0.19 mg/kg/injection, schedule: Q01DX010 (ip), vehicle: saline): 93 % of control | T/C (dose: 0.39 mg/kg/injection, schedule: Q01DX010 (ip), vehicle: saline): 86 % of control | T/C (dose: 1.56 mg/kg/injection, schedule: Q01DX010 (ip), vehicle: saline): 96 % of control

COc1ccc2[nH]c3c(C)c4ccncc4c(C)c3c2c1
T/C [5]: 100 % of control | T/C [6]: 93 % of control | T/C (dose: 10.0 mg/kg/injection, schedule: Q01DX010 (ip), vehicle: saline): 103 % of control | T/C (dose: 20.0 mg/kg/injection, schedule: Q01DX010 (ip), vehicle: saline): 117 % of control

CN(C)c1nc(N(C)C)nc(N(C)C)n1
T/C (dose: 9.4 mg/kg/injection, schedule: Q01DX010 (ip), vehicle: saline): 103 % of control and 111 % of control | T/C (dose: 150.0 mg/kg/injection, schedule: Q01DX010 (ip), vehicle: saline): 103 % of control and 107 % of control

C[C@H]1C(=O)O[C@@H]2CCN3CC=C(COC(=O)[C@](C)(O)[C@@]1(C)O)[C@H]23
T/C [12]: 100 % of control and 117 % of control | T/C [13]: 96 % of control and 107 % of control | T/C [14]: 96 % of control and 107 % of control | T/C [15]: 100 % of control

Nc1nc(=S)c2ncn(C3OC(CO)C(O)C3O)c2[nH]1 (centres undefined)
T/C [16]: 110 % of control | T/C [18]: 96 % of control | T/C [7]: 89 % of control

CC(C)(C)CC(C)(C)c1ccc(O)cc1
T/C [2]: 100 % of control | T/C [3]: 100 % of control | T/C [4]: 107 % of control | T/C (dose: 500.0 mg/kg/injection, schedule: Q01DX010 (ip), vehicle: saline): 111 % of control

CC(=O)c1cccc(NC2C(N)C(NC(=O)N(C)C)(C(C)O)C(C)(O)C2(O)COC(=O)c2c(C)cccc2O)c1 (centres undefined)
T/C [16]: 90 % of control

C[C@]12CC[C@H](OC3OC(CO)C(O)C(O)C3O)C[C@H]1CC[C@@H]1[C@@H]2CC[C@]2(C)[C@@H](C3=CCOC3=O)CC[C@]12O (some centres undefined)
T/C [17]: 100 % of control | T/C [18]: 91 % of control

C[C@]12C[C@H](O)[C@H]3[C@@H](CCC4=CC(=O)CC[C@@]43C)[C@@H]1CC[C@@H]2C(=O)CO
T/C (dose: 12.5 mg/kg/injection, schedule: Q01DX010 (sc), vehicle: steriod suspending solution): 100 % of control | T/C (dose: 25.0 mg/kg/injection, schedule: Q01DX010 (sc), vehicle: steriod suspending solution): 100 % of control | T/C (dose: 50.0 mg/kg/injection, schedule: Q01DX010 (sc), vehicle: steriod suspending solution): 100 % of control | T/C (dose: 100.0 mg/kg/injection, schedule: Q01DX010 (sc), vehicle: steriod suspending solution): 100 % of control

CC[C@]1(O)C[C@H]2CN(CCc3c([nH]c4ccccc34)[C@@](C(=O)OC)(c3cc4c(cc3OC)N(C=O)[C@H]3[C@@](O)(C(=O)OC)[C@H](OC(C)=O)[C@]5(CC)C=CCN6CC[C@]43[C@@H]65)C2)C1
T/C (dose: 15.6 micrograms/kg/injection, schedule: Q01DX010 (ip), vehicle: saline): 117 % of control | T/C (dose: 31.3 micrograms/kg/injection, schedule: Q01DX010 (ip), vehicle: saline): 114 % of control

O=C(Nc1ccc(C2=NCCN2)cc1)c1cccc(C(=O)Nc2ccc(C3=NCCN3)cc2)c1
T/C [9]: 163 % of control | T/C [10]: 177 % of control | T/C [11]: 240 % of control | T/C (dose: 64.0 mg/kg/injection, schedule: Q01DX010 (ip), vehicle: saline): 290 % of control
